Data from US11540517B2, “Active compound combinations having insecticidal/acaricidal properties” (Bayer Aktiengesellschaft, priority 2017, dated 2023).

What was measured:
Assay type in all cases: in vivo
Tetranychus urticae = Tetranychus urticae - spray test OP-resistant; details: mortality
Experimental: (§1) The expected efficacy of a given combination of two compounds is calculated as follows (see Colby, S. R., “Calculating Synergistic and antagonistic Responses of Herbicide Combinations”, Weeds 15, pp. 20-22, 1967): • If • X is the efficacy expressed in % mortality of the untreated control for test compound A at a concentration of m ppm respectively m g/ha, • Y is the efficacy expressed in % mortality of the untreated control for test compound B at a concentration of n ppm respectively n g/ha, • E is the efficacy expressed in % mortality of the untreated control using the mixture of A and B at m and n ppm respectively m and n g/ha, • then is
(§2) [formula] • If the observed insecticidal efficacy of the combination is higher than the one calculated as “E”, then the combination of the two compounds is more than additive, i.e. there is a synergistic effect.
Tetranyechus urticae—Spray Test OP-Resistant
Solvent: 78.0 parts by weight acetone
1.5 parts by weight dimethylformamide
Emulsifier: alkylarylpolyglycol ether
(§3) To produce a suitable preparation of active compound, 1 part by weight of active compound is mixed with the stated amount of solvents and is diluted with water, containing an emulsifier concentration of 1000 ppm, to the desired concentration. Further test concentrations are prepared by dilution with emulsifier containing water.
French bean (Phaseolus vulgaris) leaf disks infected with all instars of the two spotted spidermite (Tetranychus urticae), are sprayed with a preparation of the active ingredient of the desired concentration.
After the specified period of time, mortality in % is determined. 100% means all spider mites have been killed and 0% means none of the spider mites have been killed. The mortality values determined thus are recalculated using the Colby-formula (see above).

Spodoptera frugiperda = Spodoptera frugiperda - spray test; details: mortality
Experimental: as §1, §2
Spodoptera frugiperda—Spray Test
(§4) Solvent: 7 parts by weight of dimethylformamide
(§5) Emulsifier: alkylaryl polyglycol ether
as §3, with “solvent” for “solvents”
Cotton leaves (Gossypium hirsutum) are treated by being sprayed with the preparation of the active compound of the desired concentration and are infested with caterpillars of the fall army worm (Spodoptera frugiperda).
After the specified period of time mortality in % is determined. 100% means all the caterpillars have been killed and 0% means none of the caterpillars have been killed. The mortality values determined thus are recalculated using the Colby-formula (see above).

Phaedon cochleariae = Phaedon cochleariae - spray test; details: mortality
Experimental: as §1, §2
Phaedon cochleariae—Spray Test
as §4, §5
as §3, with “solvent” for “solvents”
After the specified period of time mortality in % is determined. 100% means all the beetle larvae have been killed and 0% means none of the beetle larvae have been killed. The mortality values determined thus are recalculated using the Colby-formula (see above).

Aphis gossypii = Aphis gossypii - spray test; details: 0.4 ppm, mortality
Experimental: as §1, §2
Aphis gossypii—Spray Test
as §4, §5
To produce a suitable preparation of active compound, 1 part by weight of active compound is mixed with the stated amount of solvent and is diluted with water, containing an emulsifier concentration of 1000 ppm, to the desired concentration. […]
After the specified period of time the mortality in % is determined. […] The mortality values determined thus are recalculated using the Colby-formula (see above).

CN1COCN(Cc2cnc(Cl)s2)C1=N[N+](=O)[O-] (mixture of isomers) [Thiametoxam, (EZ)-3-(2-chloro-1,3-thiazol-5-ylmethyl)-5-methyl-1,3,5-oxadiazinan-4-ylidene(nitro)amine]
Efficacy in % after 2 days (Tetranychus urticae; 0.1 g ai/ha): 0%
Efficacy in % after 2 days (Tetranychus urticae; 0.4 g ai/ha): 0%
Efficacy in % after 2 days (Tetranychus urticae; 1.6 g ai/ha): 0%

CNC(=N[N+](=O)[O-])NCC1CCOC1 (racemic) [Dinotefuran, (EZ)-(RS)-1-methyl-2-nitro-3-(tetrahydro-3-furylmethyl)guanidine]
Efficacy in % after 6 days (Tetranychus urticae; 0.2 g ai/ha, after 6 days): 0%

C/C(=N\C#N)N(C)Cc1ccc(Cl)nc1 [Acetamiprid, (E)-N^1-[(6-chloro-3-pyridyl)methyl]-N^2-cyano-N-methylacetamidine]
Efficacy in % after 2 days (Tetranychus urticae; 0.4 g ai/ha): 0%
Efficacy in % after 2 days (Tetranychus urticae; 1.6 g ai/ha): 0%
Efficacy in % after 2 days (Tetranychus urticae; 6.4 g ai/ha): 0%
Efficacy in % after 2 days (Spodoptera frugiperda; 48 ppm): 0%
Efficacy in % after 3 days (Spodoptera frugiperda; 48 ppm): 0%
Efficacy in % after 6 days (Spodoptera frugiperda; 48 ppm): 10%
Efficacy in % after 1 day (Spodoptera frugiperda; 96 ppm): 10%
Efficacy in % after 2 days (Spodoptera frugiperda; 96 ppm): 20%
Efficacy in % after 3 days (Spodoptera frugiperda; 96 ppm): 40%
Efficacy in % after 6 days (Spodoptera frugiperda; 96 ppm): 50%

CN/C(=N\[N+](=O)[O-])NCc1cnc(Cl)s1 [Clothianidin, (E)-1-(2-chloro-1,3-thiazol-5-ylmethyl)-3-methyl-2-nitroguanidine]
Efficacy in % after 1 day (Phaedon cochleariae; 2 ppm): 10%
Efficacy in % after 2 days (Phaedon cochleariae; 2 ppm): 10%
Efficacy in % after 3 days (Phaedon cochleariae; 2 ppm): 25%
Efficacy in % after 3 days (Phaedon cochleariae; 4 ppm): 60%
Efficacy in % after 1 day (Phaedon cochleariae; 8 ppm): 45%
Efficacy in % after 2 days (Phaedon cochleariae; 8 ppm): 55%
Efficacy in % after 3 days (Phaedon cochleariae; 8 ppm): 75%
Efficacy in % after 3 days (Spodoptera frugiperda; 24 ppm): 40%
Efficacy in % after 1 day (Spodoptera frugiperda; 48 ppm): 10%

Cc1cc(F)c(N=C2SCC(=O)N2CC(F)(F)F)cc1[S+]([O-])CC(F)(F)F (centres unmarked) [Cpd of formula (I)]
Efficacy in % after 1 day (Phaedon cochleariae; 1 ppm): 0%
Efficacy in % after 2 days (Phaedon cochleariae; 1 ppm): 0%
Efficacy in % after 3 days (Phaedon cochleariae; 1 ppm): 0%
Efficacy in % after 3 days (Phaedon cochleariae; 2 ppm): 0%
Efficacy in % after 1 day (Phaedon cochleariae; 4 ppm): 0%
Efficacy in % after 2 days (Phaedon cochleariae; 4 ppm): 10%
Efficacy in % after 3 days (Phaedon cochleariae; 4 ppm): 10%
Efficacy in % after 2 days (Tetranychus urticae; 0.1 g ai/ha): 0%
Efficacy in % after 3 days (Spodoptera frugiperda; 2.4 ppm): 0%
Efficacy in % after 1 day (Spodoptera frugiperda; 4.8 ppm): 0%
Efficacy in % after 2 days (Spodoptera frugiperda; 4.8 ppm): 0%
Efficacy in % after 3 days (Spodoptera frugiperda; 4.8 ppm): 0%
Efficacy in % after 6 days (Spodoptera frugiperda; 4.8 ppm): 0%
Efficacy in % after 1 day (Spodoptera frugiperda; 9.6 ppm): 0%
Efficacy in % after 2 days (Spodoptera frugiperda; 9.6 ppm): 0%
Efficacy in % after 3 days (Spodoptera frugiperda; 9.6 ppm): 0%
Efficacy in % after 6 days (Spodoptera frugiperda; 9.6 ppm): 0%

O=C1C=C(N(Cc2ccc(Cl)nc2)CC(F)F)CO1 [Flupyradifurone, 4-[(6-chloro-3-pyridylmethyl)(2,2-difluoroethyl)amino]furan-2(5H)-one]
Efficacy in % after 2 days (Tetranychus urticae; 0.4 g ai/ha): 0%
Efficacy in % after 2 days (Tetranychus urticae; 1.6 g ai/ha): 0%
Efficacy in % after 2 days (Tetranychus urticae; 6.4 g ai/ha): 0%

O=[N+]([O-])N=C1NCCN1Cc1cnc(Cl)s1 [Imidaclothiz, (EZ)-1-(2-chloro-1,3-thiazol-5-ylmethyl)-N-nitroimidazolidin-2-ylideneamine]
Efficacy in % after 6 days (Aphis gossypii): 20%
Efficacy in % after 2 days (Tetranychus urticae; 0.8 g ai/ha): 0%
Efficacy in % after 2 days (Tetranychus urticae; 3.2 g ai/ha): 0%
Efficacy in % after 2 days (Tetranychus urticae; 12.8 g ai/ha): 0%
